Reference: patent US20250235543A1, “MODIFIED PROTEINS AND PROTEIN DEGRADERS” (Cullgen (Shanghai), Inc., priority 2021, published 2025)
Where two headings read alike, the source gives them in different places.

Experiments:
cyclin D1 = test: Cyclin D1 percentage degradation in Calu-1 cells (immunoblotting); assay type: cell-based; conditions: 16 hours
In short: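 Cyclin D1 degradation was assessed by western blot. Clarified lysates, obtained by RIPA lysis with inhibitors and centrifugation at 13,000 rpm, were normalized by BCA protein assay and separated by SDS-PAGE. Bands were detected with Western ECL Substrate on a Bio-Rad ChemiDoc MP Imaging system and quantified in Image Lab software to derive percentage degradation.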

CDK4 = molecular target: T1, CDK4 (Homo sapiens, UniProt P11802); test: CDK4 percentage degradation in Calu-1 cells (immunoblotting); assay type: cell-based; conditions: for inhibition at 0.2 µM: read-out: CDK4 Degradation (200 nM); for inhibition at 10 µM: read-out: CDK4 Degradation (10 μM)
T1 construct: endogenous in cells; host or cells: Calu-1
T1 sequence (P11802 2-303 limits assumed): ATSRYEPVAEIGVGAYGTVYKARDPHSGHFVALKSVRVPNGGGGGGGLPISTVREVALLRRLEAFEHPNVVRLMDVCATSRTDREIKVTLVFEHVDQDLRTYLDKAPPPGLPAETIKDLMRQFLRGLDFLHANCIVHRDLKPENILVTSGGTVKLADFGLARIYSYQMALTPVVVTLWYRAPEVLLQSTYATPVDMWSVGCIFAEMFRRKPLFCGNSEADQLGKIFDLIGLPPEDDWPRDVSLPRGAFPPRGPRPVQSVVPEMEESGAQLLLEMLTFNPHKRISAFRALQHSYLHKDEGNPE
T1 sequence (P24385 whole entry partner): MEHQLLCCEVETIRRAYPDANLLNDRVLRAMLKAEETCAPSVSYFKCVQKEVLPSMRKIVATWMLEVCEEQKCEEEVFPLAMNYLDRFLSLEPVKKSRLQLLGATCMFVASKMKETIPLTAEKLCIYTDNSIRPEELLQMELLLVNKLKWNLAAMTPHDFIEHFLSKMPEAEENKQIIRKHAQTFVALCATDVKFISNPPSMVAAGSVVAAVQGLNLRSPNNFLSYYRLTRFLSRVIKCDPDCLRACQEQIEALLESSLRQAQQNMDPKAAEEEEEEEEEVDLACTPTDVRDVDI
T1 sequence (Q16531 2-1140 limits assumed, further chain): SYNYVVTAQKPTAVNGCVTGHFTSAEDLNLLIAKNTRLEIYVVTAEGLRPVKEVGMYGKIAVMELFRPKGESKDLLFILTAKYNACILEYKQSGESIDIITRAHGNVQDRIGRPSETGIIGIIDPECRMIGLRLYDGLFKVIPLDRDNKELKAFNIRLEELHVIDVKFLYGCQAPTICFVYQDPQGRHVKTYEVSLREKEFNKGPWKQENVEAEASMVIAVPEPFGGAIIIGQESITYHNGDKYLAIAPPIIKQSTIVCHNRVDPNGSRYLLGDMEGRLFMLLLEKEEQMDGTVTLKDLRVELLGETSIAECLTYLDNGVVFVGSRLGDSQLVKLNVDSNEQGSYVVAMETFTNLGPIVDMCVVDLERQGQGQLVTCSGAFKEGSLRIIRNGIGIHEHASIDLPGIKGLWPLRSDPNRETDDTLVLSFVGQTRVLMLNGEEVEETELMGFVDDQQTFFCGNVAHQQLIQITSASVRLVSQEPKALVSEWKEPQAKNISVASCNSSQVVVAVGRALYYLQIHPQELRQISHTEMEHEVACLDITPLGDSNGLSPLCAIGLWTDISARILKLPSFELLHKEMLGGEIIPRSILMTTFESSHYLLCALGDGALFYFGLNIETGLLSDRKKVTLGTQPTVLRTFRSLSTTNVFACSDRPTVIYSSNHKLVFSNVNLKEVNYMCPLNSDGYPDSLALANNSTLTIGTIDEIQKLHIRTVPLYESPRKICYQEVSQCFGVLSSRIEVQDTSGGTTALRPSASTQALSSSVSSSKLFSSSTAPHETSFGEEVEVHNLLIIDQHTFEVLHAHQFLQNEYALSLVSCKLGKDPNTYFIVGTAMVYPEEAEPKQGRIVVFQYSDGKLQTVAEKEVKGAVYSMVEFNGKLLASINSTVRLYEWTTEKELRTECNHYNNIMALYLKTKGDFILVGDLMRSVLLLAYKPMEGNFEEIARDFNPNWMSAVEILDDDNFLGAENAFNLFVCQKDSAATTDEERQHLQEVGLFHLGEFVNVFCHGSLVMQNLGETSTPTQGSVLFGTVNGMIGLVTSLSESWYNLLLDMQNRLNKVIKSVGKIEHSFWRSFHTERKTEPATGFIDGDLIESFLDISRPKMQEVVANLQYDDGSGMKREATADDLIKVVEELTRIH
In short: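 CDK4 degradation was measured by immunoblotting. Cells were washed in cold PBS and lysed in RIPA buffer with inhibitors for 30 min at 4° C., then spun at 13,000 rpm to clear. After BCA protein determination, lysates were heated at 99° C. for 5 min in Laemmli buffer, resolved on SDS-PAGE, imaged on a ChemiDoc MP with ECL substrate, and band intensities quantified.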

SMILES	CyclinD1 Degradation (200 nM) (cyclin D1)	inhibition at 0.2 µM (CDK4; Calu-1 cells, 200 nM, 16 hours) [%]	CyclinD1 Degradation (10 μM) (cyclin D1)	inhibition at 10 µM (CDK4; Calu-1 cells, 16 hours) [%]	inhibition at 0.2 µM (CDK4; Calu-1, 16 h) [%]
CC(=O)c1c(C)c2cnc(Nc3ccc(N4CCN(CC(=O)NCCOCCOCCOCCOCCOCCNc5ccc(C(=O)Nc6cc(C)n(C)n6)c(C)c5)CC4)cn3)nc2n(C2CCCC2)c1=O [CPD-050, 4-((1-(4-(6-((6-Acetyl-8-cyclopentyl-5-methyl-7-oxo-7,8-dihydropyrido[2,3-d]pyrimidin-2-yl)amino)pyridin-3-yl)piperazin-1-yl)-2-oxo-6,9,12,15,18-pentaoxa-3-azaicosan-20-yl)amino)-N-(1,5-dimethyl-1H-pyrazol-3-yl)-2-methylbenzamide]	A (protein percentage degradation >=80%)	> 80			
Cc1nc(NC(=O)c2ccccc2NC(=O)CCCCCNC(=O)CN2CCN(c3ccc(Nc4ncc5cc(C(=O)N(C)C)n(C6CCCC6)c5n4)nc3)CC2)sc1C [CPD-290, 7-Cyclopentyl-2-((5-(4-(2-((6-((2-((4,5-dimethylthiazol-2-yl)carbamoyl)phenyl)amino)-6-oxohexyl)amino)-2-oxoethyl)piperazin-1-yl)pyridin-2-yl)amino)-N,N-dimethyl-7H-pyrrolo[2,3-d]pyrimidine-6-carboxamide]			B (protein percentage degradation < 80%, and >= 50%)	30 to 50	
CC(=O)c1c(C)c2cnc(Nc3ccc(N4CCN(CC(=O)NCCOCCOCCOCCOCCOCCNc5ccc(C(=O)Nc6ncc(C(C)C)s6)c(C)c5)CC4)cn3)nc2n(C2CCCC2)c1=O [CPD-006, 4-((1-(4-(6-((6-Acetyl-8-cyclopentyl-5-methyl-7-oxo-7,8-dihydropyrido[2,3-d]pyrimidin-2-yl)amino)pyridin-3-yl)piperazin-1-yl)-2-oxo-6,9,12,15,18-pentaoxa-3-azaicosan-20-yl)amino)-N-(5-isopropylthiazol-2-yl)-2-methylbenzamide]	D (protein percentage degradation <30%)	< 30			
CC(=O)c1c(C)c2cnc(Nc3ccc(N4CCN(C(=O)CCCCCCCCC(=O)Nc5ccccc5C(=O)Nc5nc(C)c(C)s5)CC4)cn3)nc2n(C2CCCC2)c1=O [CPD-162, 2-(10-(4-(6-((6-Acetyl-8-cyclopentyl-5-methyl-7-oxo-7,8-dihydropyrido[2,3-d]pyrimidin-2-yl)amino)pyridin-3-yl)piperazin-1-yl)-10-oxodecanamido)-N-(4,5-dimethylthiazol-2-yl)benzamide]	C (protein percentage degradation <50%, and >=30%)				< 30
CC(=O)c1c(C)c2cnc(Nc3ccc(N4CCN(CC(=O)NCCOCCOCCC(=O)Nc5ccccc5C(=O)Nc5ncc(C)s5)CC4)cn3)nc2n(C2CCCC2)c1=O [CPD-051, 2-(3-(2-(2-(2-(4-(6-((6-Acetyl-8-cyclopentyl-5-methyl-7-oxo-7,8-dihydropyrido[2,3-d]pyrimidin-2-yl)amino)pyridin-3-yl)piperazin-1-yl)acetamido)ethoxy)ethoxy)propanamido)-N-(5-methylthiazol-2-yl)benzamide]	A (protein percentage degradation >=80%)	> 80			
CC(=O)c1c(C)c2cnc(Nc3ccc(N4CCN(C(=O)CCCCCC(=O)Nc5ccccc5C(=O)Nc5nc(C)c(C)s5)CC4)cn3)nc2n(C2CCCC2)c1=O [CPD-157, 2-(7-(4-(6-((6-Acetyl-8-cyclopentyl-5-methyl-7-oxo-7,8-dihydropyrido[2,3-d]pyrimidin-2-yl)amino)pyridin-3-yl)piperazin-1-yl)-7-oxoheptanamido)-N-(4,5-dimethylthiazol-2-yl)benzamide]	D (protein percentage degradation <30%)				< 30
CC(=O)c1c(C)c2cnc(Nc3ccc(N4CCN(CC(=O)NCCCCCNc5cc(Cl)ccc5C(=O)Nc5ccc(N(C)C)nn5)CC4)cn3)nc2n(C2CCCC2)c1=O [CPD-374, 2-((5-(2-(4-(6-((6-Acetyl-8-cyclopentyl-5-methyl-7-oxo-7,8-dihydropyrido[2,3-d]pyrimidin-2-yl)amino)pyridin-3-yl)piperazin-1-yl)acetamido)pentyl)amino)-4-chloro-N-(6-(dimethylamino)pyridazin-3-yl)benzamide]	A (protein percentage degradation >=80%)	50 to 80			
CC(=O)c1c(C)c2cnc(Nc3ccc(N4CCN(CC(=O)NCCCCCCCCNc5cccc(C(=O)Nc6nc(C)c(C)s6)c5C)CC4)cn3)nc2n(C2CCCC2)c1=O [CPD-090, 3-((8-(2-(4-(6-((6-Acetyl-8-cyclopentyl-5-methyl-7-oxo-7,8-dihydropyrido[2,3-d]pyrimidin-2-yl)amino)pyridin-3-yl)piperazin-1-yl)acetamido)octyl)amino)-N-(4,5-dimethylthiazol-2-yl)-2-methylbenzamide]	A (protein percentage degradation >=80%)	50 to 80			
Cc1nc(NC(=O)c2ccccc2NC(=O)CCOCCOCCOCCNC(=O)CN2CCN(Cc3ccc(Nc4ncc(F)c(-c5cc(F)c6nc(C)n(C(C)C)c6c5)n4)nc3)CC2)sc1C [CPD-282, N-(4,5-Dimethylthiazol-2-yl)-2-(1-(4-((6-((5-fluoro-4-(4-fluoro-1-isopropyl-2-methyl-1H-benzo[d]imidazol-6-yl)pyrimidin-2-yl)amino)pyridin-3-yl)methyl)piperazin-1-yl)-2-oxo-6,9,12-trioxa-3-azapentadecan-15-amido)benzamide]			D (protein percentage degradation < 30%)	< 30	
CC(=O)c1c(C)c2cnc(Nc3ccc(N4CCN(CCCCCCCCCCCC(=O)Nc5ccccc5C(=O)Nc5nc(C)c(C)s5)CC4)cn3)nc2n(C2CCCC2)c1=O [CPD-177, 2-(12-(4-(6-((6-Acetyl-8-cyclopentyl-5-methyl-7-oxo-7,8-dihydropyrido[2,3-d]pyrimidin-2-yl)amino)pyridin-3-yl)piperazin-1-yl)dodecanamido)-N-(4,5-dimethylthiazol-2-yl)benzamide]	D (protein percentage degradation <30%)				< 30
Cc1nc(NC(=O)c2ccccc2NC(=O)CCCCNC(=O)CN2CCN(c3ccc(Nc4ncc5cc(C(=O)N(C)C)n(C6CCCC6)c5n4)nc3)CC2)sc1C [CPD-289, 7-Cyclopentyl-2-((5-(4-(2-((5-((2-((4,5-dimethylthiazol-2-yl)carbamoyl)phenyl)amino)-5-oxopentyl)amino)-2-oxoethyl)piperazin-1-yl)pyridin-2-yl)amino)-N,N-dimethyl-7H-pyrrolo[2,3-d]pyrimidine-6-carboxamide]			A (protein percentage degradation >= 80%)	30 to 50	
CC(=O)c1c(C)c2cnc(Nc3ccc(N4CCN(CC(=O)NCCCCCCCNc5cccc(C(=O)Nc6cc(C)n(C)n6)c5C)CC4)cn3)nc2n(C2CCCC2)c1=O [CPD-329, 3-((7-(2-(4-(6-((6-Acetyl-8-cyclopentyl-5-methyl-7-oxo-7,8-dihydropyrido[2,3-d]pyrimidin-2-yl)amino)pyridin-3-yl)piperazin-1-yl)acetamido)heptyl)amino)-N-(1,5-dimethyl-1H-pyrazol-3-yl)-2-methylbenzamide]	A (protein percentage degradation >=80%)	> 80			
